PubChem BioAssay (NCI)
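Compound exposure: 48 hours, 5 concentrations, 96-well plates. TGI: total growth inhibition.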

Tests used:
Assay in all cases: growth of human tumour cells (NCI), 48 h
K-562 leukemia = test system: K-562 leukemia
NCI/ADR-RES ovarian = test system: NCI/ADR-RES ovarian
SNB-19 CNS = test system: SNB-19 CNS
CAKI-1 renal = test system: CAKI-1 renal
DU-145 prostate = test system: DU-145 prostate
EKVX NSCLC = test system: EKVX NSCLC
SF-539 CNS = test system: SF-539 CNS
MDA-N = test system: MDA-N
A498 renal = test system: A498 renal
PC-3 prostate = test system: PC-3 prostate
NCI-H23 lung = test system: NCI-H23 lung
COLO 205 colon = test system: COLO 205 colon
SW-620 colon = test system: SW-620 colon
NCI-H522 lung = test system: NCI-H522 lung
A549 NSCLC = test system: A549 NSCLC
MCF7 breast = test system: MCF7 breast
SR leukemia = test system: SR leukemia
OVCAR-4 ovarian = test system: OVCAR-4 ovarian
OVCAR-8 ovarian = test system: OVCAR-8 ovarian
T-47D breast = test system: T-47D breast
ACHN renal = test system: ACHN renal
OVCAR-5 ovarian = test system: OVCAR-5 ovarian
SNB-75 CNS = test system: SNB-75 CNS
MOLT-4 leukemia = test system: MOLT-4 leukemia
NCI-H460 lung = test system: NCI-H460 lung
HCT-116 colon = test system: HCT-116 colon
MDA-MB-435 = test system: MDA-MB-435
LOX IMVI melanoma = test system: LOX IMVI melanoma
HCC-2998 colon = test system: HCC-2998 colon
IGROV1 ovarian = test system: IGROV1 ovarian
CCRF-CEM leukemia = test system: CCRF-CEM leukemia
MDA-MB-231 breast = test system: MDA-MB-231 breast
TK-10 renal = test system: TK-10 renal
HS 578T breast = test system: HS 578T breast
HL-60(TB) leukemia = test system: HL-60(TB) leukemia
NCI-H226 lung = test system: NCI-H226 lung
M14 melanoma = test system: M14 melanoma
HOP-62 NSCLC = test system: HOP-62 NSCLC
UACC-62 melanoma = test system: UACC-62 melanoma
UACC-257 melanoma = test system: UACC-257 melanoma
SK-OV-3 ovarian = test system: SK-OV-3 ovarian
SN12C renal = test system: SN12C renal
786-0 renal = test system: 786-0 renal
HT29 colon = test system: HT29 colon
U251 CNS = test system: U251 CNS
KM12 colon = test system: KM12 colon
HOP-92 NSCLC = test system: HOP-92 NSCLC
MALME-3M melanoma = test system: MALME-3M melanoma
HCT-15 colon = test system: HCT-15 colon
RXF 393 renal = test system: RXF 393 renal
SF-295 CNS = test system: SF-295 CNS
SK-MEL-28 melanoma = test system: SK-MEL-28 melanoma
SF-268 CNS = test system: SF-268 CNS
OVCAR-3 ovarian = test system: OVCAR-3 ovarian
SK-MEL-2 melanoma = test system: SK-MEL-2 melanoma
SK-MEL-5 melanoma = test system: SK-MEL-5 melanoma
UO-31 renal = test system: UO-31 renal
BT-549 breast = test system: BT-549 breast

Measured: TGI

CCOC(=O)c1c(SC(=O)c2ccc(C(C)(C)C)cc2)n(-c2ccccc2)c(=S)n(-c2ccccc2)c1=O
not listed: SK-MEL-2 melanoma | SK-MEL-5 melanoma | UO-31 renal | BT-549 breast
> 100 µM: all other assays above

CC1OC(OC2C(O[C@H]3CC[C@@H]4C(=CC[C@@H]5[C@@]4(C)C(=O)C[C@]4(C)[C@@H]([C@H](C)CC[C@@H](O)C(C)(C)O)CC[C@@]54C)C3(C)C)OC(CO)C(O)C2O)C(O)C(O)C1O (stereo partly specified)
not listed: SR leukemia
> 100 µM: all other assays above
